Results: ChEMBL document CHEMBL4130538, “Discovery of novel anti-angiogenesis agents. Part 7: Multitarget inhibitors of VEGFR-2, TIE-2 and EphB4” (Eur J Med Chem, 2017)

What was measured:
Angiopoietin-1 receptor = Angiopoietin-1 receptor (Homo sapiens, UniProt Q02763); test: Inhibition of TIE-2 (unknown origin) after 4 hrs by ADP-Glo luminescence assay
[1] = molecular target: Vascular endothelial growth factor receptor 3 (Homo sapiens, UniProt P35916); test: Inhibition of VEGFR-3 (unknown origin)
[2] = molecular target: Vascular endothelial growth factor receptor 1 (Homo sapiens, UniProt P17948); test: Inhibition of VEGFR-1 (unknown origin)
[3] = molecular target: Platelet-derived growth factor receptor beta (Homo sapiens, UniProt P09619); test: Inhibition of PDGFRbeta (unknown origin)
[4] = molecular target: Hepatocyte growth factor receptor (Homo sapiens, UniProt P08581); test: Inhibition of cMET (unknown origin)
[5] = molecular target: Serine/threonine-protein kinase B-raf (Homo sapiens, UniProt P15056); test: Inhibition of BRAF (unknown origin)
[6] = molecular target: Fibroblast growth factor receptor 4 (Homo sapiens, UniProt P22455); test: Inhibition of FGFR-4 (unknown origin)
[7] = molecular target: Insulin-like growth factor 1 receptor (Homo sapiens, UniProt P08069); test: Inhibition of IGF1-R (unknown origin)
[8] = molecular target: Epidermal growth factor receptor (Homo sapiens, UniProt P00533); test: Inhibition of EGFR (unknown origin)
[9] = molecular target: Fibroblast growth factor receptor 1 (Homo sapiens, UniProt P11362); test: Inhibition of FGFR-1 (unknown origin)
[10] = molecular target: Mast/stem cell growth factor receptor Kit (Homo sapiens, UniProt P10721); test: Inhibition of cKIT (unknown origin)
Ephrin type-B receptor 4 = molecular target: T1, Ephrin type-B receptor 4 (Homo sapiens, UniProt P54760); test: Inhibition of EphB4 (unknown origin) after 4 hrs by ADP-Glo luminescence assay
T1 sequence (P54760 whole entry): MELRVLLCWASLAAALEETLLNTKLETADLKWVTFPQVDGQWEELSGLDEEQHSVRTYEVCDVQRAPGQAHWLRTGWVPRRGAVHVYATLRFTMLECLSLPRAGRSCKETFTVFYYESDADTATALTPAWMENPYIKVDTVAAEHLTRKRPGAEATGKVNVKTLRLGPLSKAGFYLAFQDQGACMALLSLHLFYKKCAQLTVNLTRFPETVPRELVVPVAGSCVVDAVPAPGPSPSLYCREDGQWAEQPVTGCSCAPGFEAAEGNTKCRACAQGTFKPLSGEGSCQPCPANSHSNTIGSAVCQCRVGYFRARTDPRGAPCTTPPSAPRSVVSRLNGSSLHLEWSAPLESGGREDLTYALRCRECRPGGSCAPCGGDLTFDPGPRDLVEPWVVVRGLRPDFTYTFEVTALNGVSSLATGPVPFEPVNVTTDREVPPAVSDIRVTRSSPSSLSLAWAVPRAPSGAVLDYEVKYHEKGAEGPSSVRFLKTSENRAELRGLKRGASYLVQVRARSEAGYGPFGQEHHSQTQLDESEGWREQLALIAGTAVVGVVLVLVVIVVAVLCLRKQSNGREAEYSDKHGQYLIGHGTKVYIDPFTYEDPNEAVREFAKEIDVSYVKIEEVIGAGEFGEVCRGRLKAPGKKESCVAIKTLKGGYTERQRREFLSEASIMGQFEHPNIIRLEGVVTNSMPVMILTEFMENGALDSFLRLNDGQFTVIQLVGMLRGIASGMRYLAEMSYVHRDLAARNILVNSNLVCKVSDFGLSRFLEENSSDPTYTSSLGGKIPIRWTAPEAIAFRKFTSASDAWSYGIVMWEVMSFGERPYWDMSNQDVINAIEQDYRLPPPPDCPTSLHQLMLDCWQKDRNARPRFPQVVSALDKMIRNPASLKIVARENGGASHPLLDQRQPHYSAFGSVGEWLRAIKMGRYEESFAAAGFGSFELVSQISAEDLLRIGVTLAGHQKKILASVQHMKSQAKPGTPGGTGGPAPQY

[11] = molecular target: Vascular endothelial growth factor receptor 2 (Homo sapiens, UniProt P35968); test: Inhibition of VEGFR-2 (unknown origin) after 60 mins by ADP-Glo luminescence assay
EA.hy 926 = test: Anti-angiogenic activity in human EAhy926 cells as growth inhibition after 24 hrs by CCK-8 assay; type: cell-based; settings: EA.hy 926, 24 h

Angiopoietin-1 receptor, sequence (Q02763 whole entry): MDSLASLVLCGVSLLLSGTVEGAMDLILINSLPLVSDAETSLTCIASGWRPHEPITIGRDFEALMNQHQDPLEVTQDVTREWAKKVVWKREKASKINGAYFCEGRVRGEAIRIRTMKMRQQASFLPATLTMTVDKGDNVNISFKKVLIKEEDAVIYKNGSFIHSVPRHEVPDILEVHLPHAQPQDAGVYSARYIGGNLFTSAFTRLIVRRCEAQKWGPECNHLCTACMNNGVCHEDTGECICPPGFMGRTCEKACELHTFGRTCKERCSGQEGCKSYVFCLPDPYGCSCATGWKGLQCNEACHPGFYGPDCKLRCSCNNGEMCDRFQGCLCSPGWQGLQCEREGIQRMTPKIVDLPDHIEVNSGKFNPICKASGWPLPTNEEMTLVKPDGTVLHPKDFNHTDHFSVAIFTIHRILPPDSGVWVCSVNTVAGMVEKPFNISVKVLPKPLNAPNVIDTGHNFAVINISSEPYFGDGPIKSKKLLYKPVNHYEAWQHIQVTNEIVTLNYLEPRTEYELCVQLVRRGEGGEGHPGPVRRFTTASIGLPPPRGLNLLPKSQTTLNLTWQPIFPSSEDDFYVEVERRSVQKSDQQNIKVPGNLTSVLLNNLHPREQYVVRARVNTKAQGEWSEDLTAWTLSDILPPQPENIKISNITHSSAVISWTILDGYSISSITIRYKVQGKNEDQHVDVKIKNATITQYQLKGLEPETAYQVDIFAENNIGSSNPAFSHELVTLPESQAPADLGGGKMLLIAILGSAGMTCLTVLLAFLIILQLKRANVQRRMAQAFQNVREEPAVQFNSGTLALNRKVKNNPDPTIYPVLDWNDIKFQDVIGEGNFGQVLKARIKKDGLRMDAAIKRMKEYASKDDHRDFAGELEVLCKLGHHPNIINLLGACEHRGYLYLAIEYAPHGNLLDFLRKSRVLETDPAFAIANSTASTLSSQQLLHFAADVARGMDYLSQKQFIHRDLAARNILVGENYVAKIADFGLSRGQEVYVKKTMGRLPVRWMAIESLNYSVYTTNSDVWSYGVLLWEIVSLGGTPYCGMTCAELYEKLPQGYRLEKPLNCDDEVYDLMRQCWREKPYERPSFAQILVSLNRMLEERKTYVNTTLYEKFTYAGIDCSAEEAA
Vascular endothelial growth factor receptor 2, sequence (P35968 whole entry): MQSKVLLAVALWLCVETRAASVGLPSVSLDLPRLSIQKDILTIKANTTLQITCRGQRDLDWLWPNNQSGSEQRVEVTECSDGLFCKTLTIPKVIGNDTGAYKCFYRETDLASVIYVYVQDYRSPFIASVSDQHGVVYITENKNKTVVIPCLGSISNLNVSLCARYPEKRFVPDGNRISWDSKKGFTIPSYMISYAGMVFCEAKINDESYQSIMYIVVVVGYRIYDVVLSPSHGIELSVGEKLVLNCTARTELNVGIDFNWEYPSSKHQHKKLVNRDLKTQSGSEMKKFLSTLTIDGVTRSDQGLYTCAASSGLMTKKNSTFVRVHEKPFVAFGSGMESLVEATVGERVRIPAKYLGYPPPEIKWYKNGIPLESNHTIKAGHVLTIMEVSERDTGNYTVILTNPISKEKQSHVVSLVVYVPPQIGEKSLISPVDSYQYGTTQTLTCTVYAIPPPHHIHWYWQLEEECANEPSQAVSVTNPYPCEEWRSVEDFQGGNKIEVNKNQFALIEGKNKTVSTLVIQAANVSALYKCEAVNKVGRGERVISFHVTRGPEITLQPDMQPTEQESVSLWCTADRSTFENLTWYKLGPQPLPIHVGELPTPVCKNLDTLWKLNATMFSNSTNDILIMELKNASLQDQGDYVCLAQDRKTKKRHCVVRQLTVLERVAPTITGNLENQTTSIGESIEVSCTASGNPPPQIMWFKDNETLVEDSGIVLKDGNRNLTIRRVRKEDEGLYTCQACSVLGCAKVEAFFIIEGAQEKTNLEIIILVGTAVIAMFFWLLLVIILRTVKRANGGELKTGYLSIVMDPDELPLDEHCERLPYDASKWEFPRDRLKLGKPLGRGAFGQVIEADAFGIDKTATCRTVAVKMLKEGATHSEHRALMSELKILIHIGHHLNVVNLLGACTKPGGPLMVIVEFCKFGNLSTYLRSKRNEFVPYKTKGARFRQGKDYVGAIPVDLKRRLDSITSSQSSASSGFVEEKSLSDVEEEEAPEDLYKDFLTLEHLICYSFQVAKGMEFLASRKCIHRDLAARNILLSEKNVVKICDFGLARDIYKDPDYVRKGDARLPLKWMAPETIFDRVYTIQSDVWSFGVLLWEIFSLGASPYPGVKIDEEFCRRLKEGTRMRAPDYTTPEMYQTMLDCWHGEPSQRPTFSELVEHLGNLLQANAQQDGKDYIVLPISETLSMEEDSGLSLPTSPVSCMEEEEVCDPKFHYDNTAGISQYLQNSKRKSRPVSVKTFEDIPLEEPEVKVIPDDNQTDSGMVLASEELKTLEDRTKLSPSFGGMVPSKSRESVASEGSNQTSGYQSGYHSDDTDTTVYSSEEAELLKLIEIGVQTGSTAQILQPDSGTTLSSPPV
Platelet-derived growth factor receptor beta, sequence (P09619 whole entry): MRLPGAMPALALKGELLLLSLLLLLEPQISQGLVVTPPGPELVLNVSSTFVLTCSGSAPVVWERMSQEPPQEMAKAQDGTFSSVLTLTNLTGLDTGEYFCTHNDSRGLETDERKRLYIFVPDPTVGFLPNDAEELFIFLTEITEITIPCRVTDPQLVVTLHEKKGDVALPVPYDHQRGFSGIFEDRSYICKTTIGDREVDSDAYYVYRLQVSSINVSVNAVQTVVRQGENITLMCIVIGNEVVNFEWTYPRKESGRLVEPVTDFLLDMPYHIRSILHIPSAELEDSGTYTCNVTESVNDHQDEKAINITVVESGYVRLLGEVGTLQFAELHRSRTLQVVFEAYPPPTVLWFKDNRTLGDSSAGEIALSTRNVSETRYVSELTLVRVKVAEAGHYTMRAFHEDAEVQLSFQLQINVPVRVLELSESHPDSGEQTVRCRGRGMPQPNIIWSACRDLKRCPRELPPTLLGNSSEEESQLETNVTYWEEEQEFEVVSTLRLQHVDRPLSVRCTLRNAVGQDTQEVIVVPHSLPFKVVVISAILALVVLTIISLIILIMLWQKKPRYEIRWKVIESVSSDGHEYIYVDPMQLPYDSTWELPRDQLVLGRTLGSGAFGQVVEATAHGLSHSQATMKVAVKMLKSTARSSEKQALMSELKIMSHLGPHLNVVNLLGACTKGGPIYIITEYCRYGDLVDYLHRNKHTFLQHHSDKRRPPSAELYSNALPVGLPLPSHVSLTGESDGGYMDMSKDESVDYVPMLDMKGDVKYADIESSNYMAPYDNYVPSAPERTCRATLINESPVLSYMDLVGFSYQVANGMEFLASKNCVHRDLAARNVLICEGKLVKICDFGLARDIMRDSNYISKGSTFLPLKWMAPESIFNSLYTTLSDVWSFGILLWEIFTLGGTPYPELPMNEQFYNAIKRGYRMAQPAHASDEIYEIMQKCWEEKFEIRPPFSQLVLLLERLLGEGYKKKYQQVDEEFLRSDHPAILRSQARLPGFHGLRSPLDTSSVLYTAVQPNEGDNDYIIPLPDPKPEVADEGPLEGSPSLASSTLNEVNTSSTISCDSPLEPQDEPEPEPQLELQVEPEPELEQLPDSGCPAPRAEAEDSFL
Fibroblast growth factor receptor 1, sequence (P11362 whole entry): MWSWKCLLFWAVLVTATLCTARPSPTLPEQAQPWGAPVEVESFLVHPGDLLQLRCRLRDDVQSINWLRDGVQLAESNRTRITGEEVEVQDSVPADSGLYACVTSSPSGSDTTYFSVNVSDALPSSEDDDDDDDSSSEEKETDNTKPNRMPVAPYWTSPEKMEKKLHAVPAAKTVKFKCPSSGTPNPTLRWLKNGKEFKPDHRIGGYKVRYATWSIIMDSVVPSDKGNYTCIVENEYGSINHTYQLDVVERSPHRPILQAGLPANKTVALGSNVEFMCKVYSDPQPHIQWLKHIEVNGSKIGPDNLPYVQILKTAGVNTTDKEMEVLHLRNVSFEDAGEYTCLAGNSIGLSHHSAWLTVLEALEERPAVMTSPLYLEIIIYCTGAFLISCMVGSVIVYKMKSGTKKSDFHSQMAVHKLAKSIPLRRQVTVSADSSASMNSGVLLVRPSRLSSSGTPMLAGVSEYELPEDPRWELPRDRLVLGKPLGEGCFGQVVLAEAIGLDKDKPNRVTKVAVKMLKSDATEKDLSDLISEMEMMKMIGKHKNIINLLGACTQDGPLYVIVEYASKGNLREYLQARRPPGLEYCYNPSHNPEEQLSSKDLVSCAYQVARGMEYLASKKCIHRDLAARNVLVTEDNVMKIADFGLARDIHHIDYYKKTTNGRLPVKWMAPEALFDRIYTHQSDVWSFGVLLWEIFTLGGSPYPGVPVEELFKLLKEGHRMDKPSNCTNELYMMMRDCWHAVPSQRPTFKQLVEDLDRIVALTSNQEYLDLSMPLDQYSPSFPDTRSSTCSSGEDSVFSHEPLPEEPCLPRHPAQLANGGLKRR

IC50 (Angiopoietin-1 receptor) [nM] | SMILES | further results
21.3 | C=CC(=O)Nc1ccc(-c2ccc(NC(=O)Nc3ccc(C(C)(C)C)cc3)cc2)cn1 | 
14.5 | Nc1ncc2ccc(-c3ccc(NC(=O)C4(C(=O)Nc5ccc(F)c(F)c5)CC4)cc3)cc2n1 | 
65.3 | Nc1ncc2ccc(-c3ccc(NC(=O)C4(C(=O)Nc5cc(Br)cc(C(F)(F)F)c5)CC4)cc3)cc2n1 | 
> 500 | Nc1ncc2ccc(-c3ccc(NC(=O)C4(C(=O)Nc5ccc(Cl)c(Cl)c5)CC4)cc3)cc2n1 | 
> 500 | Nc1ncc2ccc(-c3ccc(NC(=O)C4(C(=O)Nc5cc(Br)ccc5OC(F)(F)F)CC4)cc3)cc2n1 | 
54.9 | Nc1ncc2ccc(-c3ccc(NC(=O)C4(C(=O)Nc5ccc(Cl)cc5Cl)CC4)cc3)cc2n1 | 
9.19 | C=CC(=O)Nc1ccc(-c2ccc(NC(=O)Nc3cccc(C(C)C)c3)cc2)cn1 | 
7.97 | C=CC(=O)Nc1ccc(-c2ccc(NC(=O)Nc3ccccc3Cl)cc2)cn1 | 
> 500 | Nc1ncc2ccc(-c3ccc(NC(=O)C4(C(=O)Nc5ccc(OC(F)(F)F)cc5Br)CC4)cc3)cc2n1 | 
> 500 | Nc1ncc2ccc(-c3ccc(NC(=O)C4(C(=O)Nc5ccc(OCCCN6CCOCC6)c(F)c5)CC4)cc3)cc2n1 | IC50 (Ephrin type-B receptor 4): > 500 nM; IC50 [11]: > 500 nM; IC50 (EA.hy 926): 32200 nM

Continued, molecule first:

SMILES | IC50 (Angiopoietin-1 receptor) [nM] | further results
C=CC(=O)Nc1ccc(-c2ccc(NC(=O)Nc3cccc(C(F)(F)F)c3)cc2)cn1 | 3.59 | 
Nc1ncc2ccc(-c3ccc(NC(=O)C4(C(=O)Nc5ccc(Br)cc5OC(F)(F)F)CC4)cc3)cc2n1 | > 500 | 
C=CC(=O)Nc1ccc(-c2ccc(NC(=O)Nc3c(C)cccc3C)cc2)cn1 | > 500 | 
C=CC(=O)Nc1ccc(-c2ccc(NC(=O)Nc3ccc(C)c(Cl)c3)cc2)cn1 | 14.2 | 
O=C(Nc1cccc(Cl)c1)Nc1cccc(-c2ccc3c(=O)[nH]cnc3c2)c1 | 24.8 | 
Nc1ncc2ccc(-c3ccc(NC(=O)C4(C(=O)Nc5cc(C(F)(F)F)cc(C(F)(F)F)c5)CC4)cc3)cc2n1 | 21.2 | 
C=CC(=O)Nc1ccc(-c2ccc(NC(=O)Nc3ccc(F)cc3)cc2)cn1 | 105 | 
C=CC(=O)Nc1ccc(-c2ccc(NC(=O)Nc3cccc(F)c3)cc2)cn1 | 90.9 | 
C=CC(=O)Nc1ccc(-c2ccc(NC(=O)Nc3cccc(Cl)c3)cc2)cn1 | 5.63 | IC50 [1]: 45 nM; IC50 [2]: 25 nM; IC50 [3]: 180 nM; IC50 [4]: 57.8 nM; IC50 [5]: 32 nM; IC50 [6]: 1080 nM; IC50 [7]: 40 nM; IC50 [8]: 8.7 nM; IC50 [9]: 200 nM; IC50 [10]: 68.9 nM
O=C(Nc1cccc(-c2ccc3c(=O)[nH]cnc3c2)c1)Nc1ccc(F)c(F)c1 | 16.6 | 
O=C(Nc1cccc(-c2ccc3c(=O)[nH]cnc3c2)c1)Nc1ccc(Cl)c(C(F)(F)F)c1 | > 500 | 
C=CC(=O)Nc1ccc(-c2ccc(NC(=O)Nc3ccc(Cl)c(C(F)(F)F)c3)cc2)cn1 | 9.77 | 
O=C(Nc1cccc(-c2ccc3c(=O)[nH]cnc3c2)c1)Nc1cc(C(F)(F)F)cc(C(F)(F)F)c1 | 245 | 
O=C(Nc1cccc(-c2ccc3c(=O)[nH]cnc3c2)c1)Nc1cccc(C(F)(F)F)c1 | 12.8 | 
C=CC(=O)Nc1ccc(-c2ccc(NC(=O)Nc3ccc(OC(F)(F)F)cc3)cc2)cn1 | 59.9 | 
Nc1ncc2ccc(-c3ccc(NC(=O)C4(C(=O)Nc5cc(OC(F)(F)F)ccc5Br)CC4)cc3)cc2n1 | 14.7 | 
Nc1ncc2ccc(-c3ccc(NC(=O)C4(C(=O)Nc5ccc6c(c5)OCO6)CC4)cc3)cc2n1 | 432 | IC50 (Ephrin type-B receptor 4): > 500 nM; IC50 [11]: > 500 nM; IC50 (EA.hy 926): 29200 nM
